Values quoted from earlier work in patent publication US20040019101A1, “Methods of treating gastrointestinary and genitourinary pain disorders” (priority 2002, published 2004).

Tests used:
[1] = test system: irritable bowel syndrome; conditions: in vivo
[2] = test system: monoamine neurotransmitter uptake
[3] = test system: dopamine reuptake; conditions: compared with serotonin and norepinephrine uptake
[4] = test system: norepinephrine uptake
[5] = test system: histaminergic receptors; conditions: in vitro
[6] = test system: adrenergic receptors; conditions: in vitro
[7] = test system: monoamine oxidase
[8] = test system: orocecal transit; conditions: healthy subjects or IBS patients

CN(C)CCC=C1c2ccccc2CCc2ccccc21 [amytriptiline]
efficacy in treatment of irritable bowel syndrome [1]: efficacious

CN(C)CCC=C1c2ccccc2COc2ccccc21 [doxepin]
efficacy in treatment of irritable bowel syndrome [1]: efficacious

COc1ccc(C(CN(C)C)C2(O)CCCCC2)cc1 (centres unmarked) [venlafaxine, 1-[2-(dimethylamino)-1-(4-methoxyphenyl)ethyl] cyclohexanol]
inhibition of monoamine neurotransmitter uptake [2]: potent inhibitors
inhibition of dopamine reuptake [3]: To a lesser degree
inhibition of norepinephrine uptake [4]: potent inhibition
affinity for histaminergic receptors [5]: virtually no affinity
affinity for adrenergic receptors [6]: virtually no affinity
inhibitory activity on monoamine oxidase [7]: no inhibitory activity

CN(C)CC(c1ccc(O)cc1)C1(O)CCCCC1 (centres unmarked) [O-desmethyl venlafaxine, 1-[(2-dimethylamino)-1-(4-hydoxyphenyl)ethyl]cyclohexanol]
inhibition of monoamine neurotransmitter uptake [2]: potent inhibitors

CN(C)CCCN1c2ccccc2CCc2ccccc21 [imipramine]
effect on orocecal transit [8]: prolong orocecal transit
efficacy in treatment of irritable bowel syndrome [1]: efficacious
